# Patent US12612412B2, “Antiviral heterocyclic compounds” (Enanta Pharmaceuticals, Inc., priority 2021, dated 2026)
# Experiments:
# [1] = test system: genotype A, "Long" strain RSV; assay: RSV-A assay (CPE protection in Hep-2 cells, ATPlite readout); type: cell-based, Human respiratory syncytial virus (HRSV); conditions: human respiratory syncytial virus, genotype A “Long” strain RSV, MOI 0.1, CPE protection, read-out: Human RSV-A (“Long”)
# Outline: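 Compound effect on RSV-induced CPE: Hep-2 monolayers, MOI 0.1, duplicate 2-fold titrations, 5-day culture in 10% FBS DMEM. Readout is ATP-based luminescence, normalised to virus-only and no-virus controls, giving EC50.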
# [2] = test system: recombinant HMPV CAN97-83 containing eGFP (MPV-GFP1); assay: HMPV antiviral assay Method-A (MPV-GFP1 eGFP fluorescence in Vero E6 cells); type: cell-based, Human metapneumovirus (HMPV); conditions: human metapneumovirus, Vero C1008, 120 h, read-out: HMPV EC50
# Outline: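 Vero E6 cells in serum-free OptiMEM with 0.5 μg/mL TPCK-trypsin were infected with eGFP-expressing HMPV CAN97-83 at MOI 0.05, with 8-point twofold dilutions from 8 or 2 μM (0.5% DMSO). After 5 days at 32° C, eGFP fluorescence gave % inhibition versus infected untreated wells. EC50 came from four-parameter logistic fits.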
Compound,EC50 [1] [nM],EC50 [2] [nM]
COc1cc(C(=O)NC[C@](O)(c2cc3c(c(-c4ccc(F)cc4)n2)OC[C@]3(C)C(N)=O)C(F)(F)F)cc2cn(C3CCC3)nc12 [Example 323],< 200,> 500
COc1cc(C(=O)NC[C@](O)(c2cc3c(c(-c4ccc(F)c(Cl)c4)n2)OC[C@]3(C)C(N)=O)C(F)(F)F)cc2cn(C3CCC3)nc12 [Example 324],< 200,< 500
Cc1ccc2cc(C(=O)NC[C@](O)(c3cc4c(c(-c5ccc(F)cc5)n3)OC[C@]4(C)C(N)=O)C(F)(F)F)cc(OC(F)F)c2n1 [Example 327],< 200,> 500
[2H]C([2H])([2H])NC(=O)Nc1cc(C(=O)NC[C@](O)(c2cc3c(c(-c4ccc(F)cc4)n2)OC[C@]3(C)C(N)=O)C(F)(F)F)cc2cc(C)cnc12 [Example 329],< 200,< 500
COc1cc(C(=O)NC[C@](O)(c2cc3c(c(-c4ccc(F)cc4)n2)OC[C@]3(C)C(N)=O)C(F)(F)F)cc2c1OCO2 [Example 441],< 200,> 500
